The source of these data is patent US20090275648A1, “MACROCYCLIC GHRELIN RECEPTOR ANTAGONISTS AND INVERSE AGONISTS AND METHODS OF USING THE SAME” (priority 2005, published 2009).

The test concerns the target T1, HEK293 cells expressing GHS-R1a receptor (Homo sapiens, UniProt Q92847).
T1 construct: host or cells: HEK293 cells (grown under geneticin selection)
Put plainly: Fluorescence functional assay (ghrelin receptor), Example 2. To be noted: assay of Example 2 (fluorescence, calcium). The test is classed as cell-based. On the procedure: The compounds of the present invention were evaluated for their ability to interact at the human ghrelin receptor utilizing a competitive radioligand binding assay, fluorescence assay or Aequorin functional assay as described in the examples below. Such methods can be conducted, if so desired, in a high throughput manner to permit the simultaneous evaluation of many compounds.
• 1. Hanks' BSS without phenol red (Life Technologies) • 2. Hepes buffer • 3. Probenecid (Sigma) • 4. FLIPR Calcium-3 Assay Kit (Molecular Devices #R-8091) • 5. Falcon cell culture 96-well black/clear bottom plates • 6. 0.05% trypsin-EDTA • 7. […]
The plates were removed from the incubator and the media removed by inversion of the plates. […] For agonist testing, after reading for ten (10) sec, 25 μL of 2× test compound or control was injected into the assay plate. Fluorescence was monitored for an additional 50 sec. A reading was taken every two (2) seconds for a total of 30 readings per assay point.
For antagonist testing, after reading for ten (10) sec, 12.5 μL of 3× test compound or control was injected into the assay plate and allowed to react for three (3) min. At that time, 4 nM ghrelin (corresponds to EC80) was injected and fluorescence was monitored for an additional 60 sec. A reading was taken every two (2) seconds for a total of 125 readings per data point. […]

T1 sequence (Q92847 whole entry): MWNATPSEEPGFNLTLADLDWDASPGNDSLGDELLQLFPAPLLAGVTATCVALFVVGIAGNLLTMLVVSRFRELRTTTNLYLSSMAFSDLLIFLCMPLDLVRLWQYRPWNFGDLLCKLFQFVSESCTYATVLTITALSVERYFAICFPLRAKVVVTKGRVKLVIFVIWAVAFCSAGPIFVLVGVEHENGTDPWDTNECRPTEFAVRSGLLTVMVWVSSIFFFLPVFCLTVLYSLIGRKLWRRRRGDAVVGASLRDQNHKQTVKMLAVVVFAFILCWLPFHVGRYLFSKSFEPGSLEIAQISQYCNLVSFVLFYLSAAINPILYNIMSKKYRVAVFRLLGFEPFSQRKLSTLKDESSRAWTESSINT

The Ki is a dissociation constant, usually derived from enzyme kinetics or from competition with a known ligand. As for `CCC(C)[C@@H]1NCCOc2ccccc2/C=C/CNC(=O)[C@@H](Cc2ccccc2)NC(=O)[C@H](C(C)O)N(C)C1=O` (stereo partly shown) [Compound 502], the Ki was in the range of 100 to 1000 nM.
